Measurements published in PubChem BioAssay AID1963445 (Molecular Pharmacology Branch, DTP, NCI, 2024).

Tested on: MCF7 complex spheroid growth, % test/control
Test: Anticancer human tumor MCF7 cell line growth inhibition [Asc];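 note: spheroids exposed to compounds for 7 days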;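 for viability, T/C: 100% = DMSO vehicle control wells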
Settings: for IC50: curve of first compound; for viability, T/C: stronger effect = lower value; active = viability on the fitted dose curve at most 10% of control; inactive = the rest
How it was run: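 Stromal components (HUVEC and hMSC) are co-assembled with the cancer cells into multicellular spheroids. Drugs are then added singly or paired, at concentrations falling by half-log increments from a clinically achievable maximum, capped at 10 microM without known Cmax.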

[1] = second compound 0.0316 µM, first compound 0.00316 µM
[2] = second compound 0.0316 µM, first compound 0.01 µM
[3] = second compound 0.0316 µM, first compound 0.0316 µM
[4] = second compound 0.0316 µM, first compound 0.1 µM
[5] = second compound 0.0316 µM, first compound 0.316 µM
[6] = second compound 0.0316 µM, first compound 1 µM
[7] = second compound 0.1 µM, first compound 0.00316 µM
[8] = second compound 0.1 µM, first compound 0.01 µM
[9] = second compound 0.1 µM, first compound 0.0316 µM
[10] = second compound 0.1 µM, first compound 0.1 µM
[11] = second compound 0.1 µM, first compound 0.316 µM
[12] = second compound 0.1 µM, first compound 1 µM
[13] = second compound 0.316 µM, first compound 0.00316 µM
[14] = second compound 0.316 µM, first compound 0.01 µM
[15] = second compound 0.316 µM, first compound 0.0316 µM
[16] = second compound 0.316 µM, first compound 0.1 µM
[17] = second compound 0.316 µM, first compound 0.316 µM
[18] = second compound 0.316 µM, first compound 1 µM
[19] = second compound 1 µM, first compound 0.00316 µM
[20] = second compound 1 µM, first compound 0.01 µM
[21] = second compound 1 µM, first compound 0.0316 µM
[22] = second compound 1 µM, first compound 0.1 µM
[23] = second compound 1 µM, first compound 0.316 µM
[24] = second compound 1 µM, first compound 1 µM
[25] = second compound 3.16 µM, first compound 0.00316 µM
[26] = second compound 3.16 µM, first compound 0.01 µM
[27] = second compound 3.16 µM, first compound 0.0316 µM
[28] = second compound 3.16 µM, first compound 0.1 µM
[29] = second compound 3.16 µM, first compound 0.316 µM
[30] = second compound 3.16 µM, first compound 1 µM
[31] = second compound 10 µM, first compound 0.00316 µM
[32] = second compound 10 µM, first compound 0.01 µM
[33] = second compound 10 µM, first compound 0.0316 µM
[34] = second compound 10 µM, first compound 0.1 µM
[35] = second compound 10 µM, first compound 0.316 µM
[36] = second compound 10 µM, first compound 1 µM

CCN1CCN(Cc2ccc(Nc3ncc(F)c(-c4cc(F)c5nc(C)n(C(C)C)c5c4)n3)nc2)CC1 + Cc1c(S(C)(=O)=O)c(-c2cc(F)cc(N3CCN(c4ccc(NS(=O)(=O)c5ccc(NC(CCN6CCC(C(=O)OCCCP(=O)(O)O)CC6)CSc6ccccc6)c(S(=O)(=O)C(F)(F)F)c5)cc4)CC3)c2)c(-c2ccc(Cl)cc2)n1C(C)C
inactive: viability, T/C [1] 101% | viability, T/C [2] 96.7% | viability, T/C [3] 106% | viability, T/C [4] 95.6% | viability, T/C [5] 91.4% | viability, T/C [6] 72.8% | viability, T/C [7] 92.8% | viability, T/C [8] 86% | viability, T/C [9] 86.3% | viability, T/C [10] 85.2% | viability, T/C [11] 101% | viability, T/C [12] 87.3% | viability, T/C [13] 100% | viability, T/C [14] 94.2% | viability, T/C [15] 98.8% | viability, T/C [16] 95% | viability, T/C [17] 94.6% | viability, T/C [18] 69.1% | viability, T/C [19] 91.6% | viability, T/C [20] 98.9% | viability, T/C [21] 79.5% | viability, T/C [22] 88.4% | viability, T/C [23] 103% | viability, T/C [24] 69.2% | viability, T/C [25] 90.2% | viability, T/C [26] 85.7% | viability, T/C [27] 92.8% | viability, T/C [28] 88.5% | viability, T/C [29] 92.1% | viability, T/C [30] 73.1% | viability, T/C [31] 136% | viability, T/C [32] 124% | viability, T/C [33] 182% | viability, T/C [34] 134% | viability, T/C [35] 114% | viability, T/C [36] 61.6%
> 1000 nM: IC50 (second compound 0.0316 µM) | IC50 (second compound 0.1 µM) | IC50 (second compound 0.316 µM) | IC50 (second compound 1 µM) | IC50 (second compound 3.16 µM) | IC50 (second compound 10 µM)

Cn1ncnc1[C@H]1c2n[nH]c(=O)c3cc(F)cc(c23)N[C@@H]1c1ccc(F)cc1 + Cc1c(S(C)(=O)=O)c(-c2cc(F)cc(N3CCN(c4ccc(NS(=O)(=O)c5ccc(NC(CCN6CCC(C(=O)OCCCP(=O)(O)O)CC6)CSc6ccccc6)c(S(=O)(=O)C(F)(F)F)c5)cc4)CC3)c2)c(-c2ccc(Cl)cc2)n1C(C)C
22.5 nM: IC50 (second compound 1 µM)
44.3 nM: IC50 (second compound 0.1 µM)
32.1 nM: IC50 (second compound 0.316 µM)
17.2 nM: IC50 (second compound 10 µM)
39.4 nM: IC50 (second compound 3.16 µM)
20.6 nM: IC50 (second compound 0.0316 µM)
inactive: viability, T/C (second compound 0.0316 µM, first compound 0.000316 µM) 116% | viability, T/C (second compound 0.0316 µM, first compound 0.001 µM) 113% | viability, T/C [1] 74.6% | viability, T/C [2] 59.4% | viability, T/C [3] 50.7% | viability, T/C [4] 39.7% | viability, T/C (second compound 0.1 µM, first compound 0.000316 µM) 100% | viability, T/C (second compound 0.1 µM, first compound 0.001 µM) 89.8% | viability, T/C [7] 78.9% | viability, T/C [8] 57.7% | viability, T/C [9] 50.5% | viability, T/C [10] 49% | viability, T/C (second compound 0.316 µM, first compound 0.000316 µM) 103% | viability, T/C (second compound 0.316 µM, first compound 0.001 µM) 75% | viability, T/C [13] 80.9% | viability, T/C [14] 54.2% | viability, T/C [15] 50.9% | viability, T/C [16] 42.9% | viability, T/C (second compound 1 µM, first compound 0.000316 µM) 106% | viability, T/C (second compound 1 µM, first compound 0.001 µM) 81.7% | viability, T/C [19] 95.7% | viability, T/C [20] 66.7% | viability, T/C [21] 44.8% | viability, T/C [22] 39.3% | viability, T/C (second compound 3.16 µM, first compound 0.000316 µM) 110% | viability, T/C (second compound 3.16 µM, first compound 0.001 µM) 86.8% | viability, T/C [25] 89.4% | viability, T/C [26] 57.3% | viability, T/C [27] 50.6% | viability, T/C [28] 46.5% | viability, T/C (second compound 10 µM, first compound 0.000316 µM) 85.3% | viability, T/C (second compound 10 µM, first compound 0.001 µM) 83.6% | viability, T/C [31] 74.6% | viability, T/C [32] 51.7% | viability, T/C [33] 49.9% | viability, T/C [34] 36.7%

O=C(c1ccc(F)c(F)c1Nc1ccc(I)cc1F)N1CC(O)([C@@H]2CCCCN2)C1 + Cc1c(S(C)(=O)=O)c(-c2cc(F)cc(N3CCN(c4ccc(NS(=O)(=O)c5ccc(NC(CCN6CCC(C(=O)OCCCP(=O)(O)O)CC6)CSc6ccccc6)c(S(=O)(=O)C(F)(F)F)c5)cc4)CC3)c2)c(-c2ccc(Cl)cc2)n1C(C)C
> 1000 nM: IC50 (second compound 0.0316 µM) | IC50 (second compound 0.1 µM) | IC50 (second compound 0.316 µM) | IC50 (second compound 1 µM) | IC50 (second compound 3.16 µM) | IC50 (second compound 10 µM)
inactive: viability, T/C [1] 101% | viability, T/C [2] 97.2% | viability, T/C [3] 88.6% | viability, T/C [4] 83.2% | viability, T/C [5] 95.2% | viability, T/C [6] 112% | viability, T/C [7] 101% | viability, T/C [8] 89.7% | viability, T/C [9] 93.6% | viability, T/C [10] 88.8% | viability, T/C [11] 94.8% | viability, T/C [12] 90% | viability, T/C [13] 90.7% | viability, T/C [14] 88.2% | viability, T/C [15] 81% | viability, T/C [16] 93.1% | viability, T/C [17] 96.4% | viability, T/C [18] 84.2% | viability, T/C [19] 84.8% | viability, T/C [20] 78% | viability, T/C [21] 82.9% | viability, T/C [22] 94.5% | viability, T/C [23] 109% | viability, T/C [24] 74.3% | viability, T/C [25] 80.9% | viability, T/C [26] 86.5% | viability, T/C [27] 80.1% | viability, T/C [28] 98.5% | viability, T/C [29] 82.6% | viability, T/C [30] 81.8% | viability, T/C [31] 159% | viability, T/C [32] 164% | viability, T/C [33] 204% | viability, T/C [34] 182% | viability, T/C [35] 114% | viability, T/C [36] 90.8%
